Several values for one entry are separate records, joined by “and”; a condition that tells them apart may be missing. Equal values may be shown once. Toxic doses and inconclusive results are not listed. Cut-off read from the data, not from the text of the source: active = T/C of 150% or more; inactive = T/C below 125%.
Test system: L1210 leukemia ip in BDF1 mice, survival T/C
Assay: NCI In Vivo Anticancer Drug Screen. Data for tumor model L1210 Leukemia (intraperitoneal) in B6D2F1 (BDF1) mice
Details: endpoint: mean survival time, higher = longer survival
How it was run: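 Each compound was tested against a transplantable tumor grown in mice. The endpoint was survival, with treated animals benchmarked against vehicle controls as a simple ratio.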

[1] = dose: 100.0 mg/kg/injection, schedule: Q04DX002 (ip), vehicle: Klucel (hydroxypropylcellulose) (HPC)
[2] = dose: 200.0 mg/kg/injection, schedule: Q04DX002 (ip), vehicle: Klucel (hydroxypropylcellulose) (HPC)
[3] = dose: 400.0 mg/kg/injection, schedule: Q04DX002 (ip), vehicle: Klucel (hydroxypropylcellulose) (HPC)
[4] = dose: 22.0 mg/kg/injection, schedule: Q01DX Z (ip), vehicle: carboxymethylcellulose (CMC)

Measured: T/C

COC(=O)C(=O)CC(=O)c1cccc(OC)c1
inactive: dose: 25.0 mg/kg/injection, schedule: Q04DX002 (ip), vehicle: Klucel (hydroxypropylcellulose) (HPC) 93 % of control | dose: 50.0 mg/kg/injection, schedule: Q04DX002 (ip), vehicle: Klucel (hydroxypropylcellulose) (HPC) 100 % of control | [1] 107 % of control and 123 % of control | [2] 93 % of control and 100 % of control | [3] 103 % of control

COC(=O)C(=O)CC(=O)c1ccc(OC)cc1
inactive: [1] 103 % of control | [2] 95 % of control | [3] 100 % of control

Nc1ccc2c(c1)C(=O)c1cc([N+](=O)[O-])ccc1-2
inactive: dose: 25.0 mg/kg/injection, schedule: Q01DX001 (ip), vehicle: Klucel (hydroxypropylcellulose) (HPC) 97 % of control | dose: 50.0 mg/kg/injection, schedule: Q01DX001 (ip), vehicle: Klucel (hydroxypropylcellulose) (HPC) 90 % of control | dose: 100.0 mg/kg/injection, schedule: Q01DX001 (ip), vehicle: Klucel (hydroxypropylcellulose) (HPC) 94 % of control

CCCCN(C)/N=N/c1nc[nH]c1C#N
inactive: dose: 75.0 mg/kg/injection, schedule: Q01DX001 (ip), vehicle: other 105 % of control | dose: 75.0 mg/kg/injection, schedule: Q01DX009 (ip), vehicle: saline with Tween-80 103 % of control | dose: 75.0 mg/kg/injection, schedule: Q04DX003 (ip), vehicle: saline with Tween-80 105 % of control | dose: 150.0 mg/kg/injection, schedule: Q01DX001 (ip), vehicle: other 102 % of control | dose: 150.0 mg/kg/injection, schedule: Q01DX009 (ip), vehicle: saline with Tween-80 105 % of control | dose: 150.0 mg/kg/injection, schedule: Q04DX003 (ip), vehicle: saline with Tween-80 96 % of control | dose: 300.0 mg/kg/injection, schedule: Q01DX001 (ip), vehicle: other 101 % of control | dose: 300.0 mg/kg/injection, schedule: Q01DX009 (ip), vehicle: saline with Tween-80 109 % of control | dose: 300.0 mg/kg/injection, schedule: Q04DX003 (ip), vehicle: saline with Tween-80 96 % of control

O=C(O)CC1OCC=C2CN3CCC45C6=CC(=O)C(=O)C([N+](=O)[O-])=C6NC4C1C2CC35 (configuration not stated)
inactive: dose: 25.0 mg/kg/injection, schedule: Q01DX001 (ip), vehicle: carboxymethylcellulose (CMC) 98 % of control

CC(C)CC(=O)/C(CC(C)C)=N/O
inactive: dose: 50.0 mg/kg/injection, schedule: Q01DX001 (ip), vehicle: saline 96 % of control | dose: 100.0 mg/kg/injection, schedule: Q01DX001 (ip), vehicle: saline 104 % of control | dose: 200.0 mg/kg/injection, schedule: Q01DX001 (ip), vehicle: saline 96 % of control | dose: 400.0 mg/kg/injection, schedule: Q01DX001 (ip), vehicle: saline 96 % of control

C[S+]1CCSCC1
inactive: dose: 25.0 mg/kg/injection, schedule: Q04DX003 (ip), vehicle: saline 90 % of control | dose: 50.0 mg/kg/injection, schedule: Q04DX003 (ip), vehicle: saline 87 % of control | dose: 100.0 mg/kg/injection, schedule: Q04DX003 (ip), vehicle: saline 117 % of control

CN=C(NC)c1cccc(NC(=O)c2cccc(C(=O)Nc3cccc(C(=NC)NC)c3)c2)c1
inactive: dose: 4.4 mg/kg/injection, schedule: Q01DX Z (ip), vehicle: carboxymethylcellulose (CMC) 96 % of control | dose: 6.6 mg/kg/injection, schedule: Q01DX Z (ip), vehicle: carboxymethylcellulose (CMC) 98 % of control | dose: 10.0 mg/kg/injection, schedule: Q01DX Z (ip), vehicle: carboxymethylcellulose (CMC) 96 % of control | dose: 15.0 mg/kg/injection, schedule: Q01DX Z (ip), vehicle: carboxymethylcellulose (CMC) 93 % of control and 98 % of control | [4] 94 % of control

O=C(Nc1cccc(C2=NCCN2)c1)c1cc(C(=O)Nc2cccc(C3=NCCN3)c2)cc(C(=O)Nc2cccc(C3=NCCN3)c2)c1
inactive: dose: 1.9 mg/kg/injection, schedule: Q01DX Z (ip), vehicle: carboxymethylcellulose (CMC) 97 % of control | dose: 2.8 mg/kg/injection, schedule: Q01DX Z (ip), vehicle: carboxymethylcellulose (CMC) 101 % of control | dose: 4.3 mg/kg/injection, schedule: Q01DX Z (ip), vehicle: carboxymethylcellulose (CMC) 97 % of control | dose: 6.5 mg/kg/injection, schedule: Q01DX Z (ip), vehicle: carboxymethylcellulose (CMC) 97 % of control and 103 % of control | dose: 9.7 mg/kg/injection, schedule: Q01DX Z (ip), vehicle: carboxymethylcellulose (CMC) 100 % of control | dose: 14.6 mg/kg/injection, schedule: Q01DX Z (ip), vehicle: carboxymethylcellulose (CMC) 96 % of control | [4] 97 % of control | dose: 22.0 mg/kg/injection, schedule: Q01DX Z (ip), vehicle: saline 98 % of control | dose: 33.0 mg/kg/injection, schedule: Q01DX Z (ip), vehicle: saline 100 % of control

N#CCCn1ccc2ccccc21
inactive: dose: 100.0 mg/kg/injection, schedule: Q04DX003 (ip), vehicle: other 96 % of control | dose: 200.0 mg/kg/injection, schedule: Q04DX003 (ip), vehicle: other 104 % of control | dose: 400.0 mg/kg/injection, schedule: Q04DX003 (ip), vehicle: other 106 % of control

CCCC(C)OC(=O)Nc1cccc(O)c1 (configuration not stated)
inactive: dose: 100.0 mg/kg/injection, schedule: Q01DX009 (ip), vehicle: saline with Tween-80 101 % of control | dose: 200.0 mg/kg/injection, schedule: Q01DX009 (ip), vehicle: saline with Tween-80 101 % of control | dose: 400.0 mg/kg/injection, schedule: Q01DX009 (ip), vehicle: saline with Tween-80 102 % of control

C[n+]1cccc2cc(NC(=O)c3ccc(C(=O)Nc4ccc5c(ccc[n+]5C)c4)cc3)ccc21
inactive: dose: 0.94 mg/kg/injection, schedule: Q01DX Z (ip), vehicle: saline 94 % of control | dose: 1.88 mg/kg/injection, schedule: Q01DX Z (ip), vehicle: saline 92 % of control | dose: 30.0 mg/kg/injection, schedule: Q01DX010 (oral), vehicle: saline 100 % of control | dose: 240.0 mg/kg/injection, schedule: Q01DX010 (oral), vehicle: saline 100 % of control

Cc1cc(S(=O)(=O)F)ccc1NC(=O)NCc1ccc(N2C(N)=NC(N)=NC2(C)C)cc1
inactive: dose: 100.0 mg/kg/injection, schedule: Q04DX003 (ip), vehicle: Klucel (hydroxypropylcellulose) (HPC) 108 % of control | dose: 200.0 mg/kg/injection, schedule: Q04DX003 (ip), vehicle: Klucel (hydroxypropylcellulose) (HPC) 100 % of control | dose: 400.0 mg/kg/injection, schedule: Q04DX003 (ip), vehicle: Klucel (hydroxypropylcellulose) (HPC) 106 % of control

CCCCNC(=O)C(C)S(=O)(=O)c1ccc(C)cc1 (configuration not stated)
inactive: dose: 100.0 mg/kg/injection, schedule: Q04DX003 (ip), vehicle: saline with Tween-80 100 % of control | dose: 200.0 mg/kg/injection, schedule: Q04DX003 (ip), vehicle: saline with Tween-80 100 % of control | dose: 400.0 mg/kg/injection, schedule: Q04DX003 (ip), vehicle: saline with Tween-80 98 % of control

O=C(Nc1ccc(C2=NCCCN2)cc1)Nc1ccc(C2=NCCCN2)cc1
inactive: dose: 0.31 mg/kg/injection, schedule: Q01DX Z (ip), vehicle: saline 94 % of control | dose: 0.63 mg/kg/injection, schedule: Q01DX Z (ip), vehicle: saline 110 % of control | dose: 1.25 mg/kg/injection, schedule: Q01DX Z (ip), vehicle: saline 114 % of control and 119 % of control | dose: 2.5 mg/kg/injection, schedule: Q01DX Z (ip), vehicle: saline 114 % of control | dose: 4.4 mg/kg/injection, schedule: Q01DX Z (ip), vehicle: saline 96 % of control

CCCCCCCCCCCCCCC(F)C(=O)OC (configuration not stated)
inactive: dose: 100.0 mg/kg/injection, schedule: Q01DX009 (sc), vehicle: olive oil, sesame oil, peanut oil 94 % of control | dose: 100.0 mg/kg/injection, schedule: Q04DX003 (sc), vehicle: olive oil, sesame oil, peanut oil 102 % of control | dose: 200.0 mg/kg/injection, schedule: Q04DX003 (sc), vehicle: olive oil, sesame oil, peanut oil 113 % of control | dose: 400.0 mg/kg/injection, schedule: Q04DX003 (sc), vehicle: olive oil, sesame oil, peanut oil 109 % of control
